Columns and labels:
[1] = Hydrolytic stability of the APL prodrugs monitored by 31P-NMR; assay type: physicochemical
From the text: Aqueous formulation of the APL prodrugs produces nanosized lipid aggregates that most likely enter cells through the endocytosis pathway. To produce the expected intrinsic antineoplastic effect, APL-derived phosphotriesters need to be processed into the bioactive parent APLs. The hydrolysis of the prodrugs may be under the control of a chemical stimulus, e.g., a pH decrease as observed during the maturation of endosomes, or of degradation enzymes that massively enter the endosome compartment when continuing to lysosomes. To get some information on the transformation of pro-APLs into APLs, we monitored the hydrolysis of these compounds over time, at pH 7.4 and 4.5, conditions that mimick the extracellular milieu and the environment of the late endosome, respectively. This monitoring was realized using ^31P-NMR spectroscopy, according to a previously reported method (Pierrat et al., [2013b]). Whatever the compound investigated, only one single ^31P resonance did appear during the course of the experiments, corresponding to that of the parent APL. This confirmed that hydrolysis of the pro-APLs selectively occurred at the acetal center. […] As a general trend, hydrolysis of the pro-APLs was […] under neutral conditions (i.e., pH 7.4) than under acidic ones (i.e., pH 4.5). […] Besides, substitution of one hydrogen atom with a methyl group on the acetal bridge accelerated the rate of hydrolysis of the prodrugs. […] Indeed, in biological media, the enzyme-mediated hydrolysis of such compounds can proceed far quicker than “simple” chemical hydrolysis under pH control (Pierrat et al., [2012]). […]

[2] = CMC/CAC by pyrene fluorescent probe technique in ultrapure water; assay type: physicochemical; details: pyrene fluorescence
Experimental: The pro-APL molecules have been specifically engineered so they can be metabolized in situ under a biological stimulus to revert to the parent APL with antiproliferative activity. […] We thus aimed to determine the self-assembly properties of the APL prodrugs. […] Pyrene is a probe which fluorescence is sensitive to the polarity of the solubilizing medium. […] Fluorescence measurements were carried out in ultrapure water and data obtained for the various APLs and their prodrugs are shown in Table 2.
Pro-APLs Self-Assembly Properties
Starting from a lipid film, compounds were […]

[3] = test system: A549 cells; assay: Cytotoxicity, MTT assay, A549; assay type: cell-based, human; details: Homo sapiens, A549, 24 h at 37°C
Experimental: (§1) The cells were exposed for a 24-h period to increasing concentration of the pro-APLs, ranging from 500 nM to 1 mM, and cell viability was assessed using the MTT colorimetric assay (Mosmann, [1983]). For the three cell lines, viability decreased in a dose-dependent manner in response to APLs and pro-APLs (Supplementary Figures 2–4). Using the best-fit regression curve method, the IC50 value (concentration that provokes 50% inhibition of the cell growth) was calculated for each compound (Table 4). The three cell lines responded to the compounds with varying sensitivities. […] This is attributed to enzyme-mediated hydrolysis of the pro-APL compounds in the complemented culture medium or in the intracellular compartment, competing with pure pH-controlled chemical hydrolysis. According to its structure, a pro-APL may or not be a substrate for specific lipases and, thus, may or not be hydrolyzed into the parent cytotoxic compound. […]
(§2) At confluency, cells were released […]
(§3) Cells were seeded into 96-well plates (Becton-Dickinson) at the required density (vide supra) in 100 µL of serum containing culture medium. […]
(§4) Mitochondrial activity measurements (MTT assay) was used to assess cytotoxicity of the compounds.
(§5) Lipid samples were prepared from a lipid film (3.6 µmol of compound evaporated from an ethanolic solution) hydrated with aqueous glucose 5 % and vigorously vortexed for 20 s before serial dilution in aqueous glucose 5 %. For addition of lipid samples to cell culture, part of the culture medium in the culture plates prepared the day before (25 µL) was removed and replaced by lipid samples (25 µL). Negative control was obtained by adding glucose 5 % to the cells instead of lipoplexes.
(§6) After a 24-h incubation period at 37 °C, culture supernatant was removed, cells were carefully washed with PBS and MTT (100 µL, 0.5 mg/mL) in complete culture medium was added. After a 1-h incubation period at 37 °C, the MTT sol ution was removed and DMSO (100 µL) was added to lyse cells and dissolve reduced MTT. Intensity of MTT reduction was then evaluated by measuring absorbance at 492 nm. Viability of cells treated with lipids or lipoplexes was expressed as the percentage of the absorbance measured in untreated cells. Value for each sample is the mean of triplicate determinations (± SD). IC50 values were determined within the 95 % confidence interval using nonlinear regression analysis with the GraphPad Prism software (GraphPad Software, San […]
(§7) All data are representative of a triplicate determination and are presented as the mean ± SD.
(§8) Statistical significance between treatments was assessed by one-way analysis of variance (ANOVA) followed by the Dunnett multiple comparison test, using the Kaleidagraph 4.5 software (Synergy Software, Reading, PA, USA). Data were considered as statistically significant for p value less than

[4] = test system: H292 cells; assay: Cytotoxicity, MTT assay, H292; assay type: cell-based, human; details: Homo sapiens, NCI-H292, H292, 24 h at 37°C
Experimental: as §1, §2, §3, §4, §5, §6, §7, §8

[5] = Particle size and zeta potential of lipoplexes by DLS; assay type: physicochemical; details: lipoplexes with pCMV-Gluc, 25 °C, 5 % glucose, N/P 3, 1 molar equivalent of DOPE
From the text: The capacity of the pro-APLs to interact electrostatically with nucleic acids and form lipoplexes was checked by standard agarose gel electrophoresis. […] The size (hydrodynamic diameter) and charge (zeta potential, ζ) of the lipoplexes prepared at an N/P ratio of 3 with one molar equivalent of dioleoyl-sn-glycero-3-phosphatidylethanolamine (DOPE), a lipid with fusogenic properties (Hui et al., [1996]; Zuhorn et al., [2005]), were investigated by DLS (Supplementary Table 1).
as measured by DLS. Lipoplexes were prepared at 25 °C, in 5 % glucose, at a N/P ratio of 3 and with
1 molar equivalent of DOPE.
(Gaillard et al., 2019). Data are the mean of three independent measurements (± SD).

Structure (SMILES): CCCCCCCCCCCCCCCCCCOP(=O)(OCOC(=O)CCCCCCCCCCC)OC1CC[N+](C)(C)CC1.[Cl-] (stereo not drawn) [PE12, 4-((((Dodecanoyloxy)methoxy)(octadecyloxy)phosphoryl)oxy)-1,1-dimethylpiperidin-1-ium chloride]
- H120 (hydrolysis rate after a 120-h incubation period) ([1]; pH 4.5): 2%
- H120 (hydrolysis rate after a 120-h incubation period) ([1]; pH 7.4): 16%
- CMC (APLs) / CAC (pro-APLs) [2]: 2.9 ± 1.0 µM
- IC50 [3]: 139 ± 4 µM
- IC50 [4]: 168 ± 7 µM
- Particle size of lipoplexes [5]: 330 ± 76 nm
